Test results published in ChEMBL document CHEMBL4364310, “Design, synthesis and biological evaluation of novel α-aminophosphonate oxadiazoles via optimized iron triflate catalyzed reaction as apoptotic inducers” (Eur J Med Chem, 2019).

Experiments:
[1] = test system: FHC; test: Cytotoxicity against human FHC cells assessed as reduction in cell viability incubated for 48 hrs by MTT assay; assay type: cell-based
[2] = test system: HepG2; test: Antiproliferative activity against human HepG2 cells assessed as reduction in cell viability incubated for 48 hrs by MTT assay; assay type: functional, cell-based; settings: HepG2, 48 h
[3] = test system: HCT-116; test: Antiproliferative activity against human HCT116 cells assessed as reduction in cell viability incubated for 48 hrs by MTT assay; assay type: functional, cell-based; settings: HCT-116, 48 h
[4] = test system: MCF7; test: Antiproliferative activity against human MCF7 cells assessed as reduction in cell viability incubated for 48 hrs by MTT assay; assay type: functional, cell-based; settings: MCF7, 48 h
[5] = Selectivity index, ratio of IC50 for human FHC cells to IC50 for human HCT116 cells; assay type: toxicity; settings: FHC cells and HCT116 cells, read-out: Ratio IC50
[6] = test system: HCT-116; test: Induction of apoptosis in human HCT116 cells assessed as increase in caspase 3 level by ELISA relative to control; assay type: functional
[7] = test system: HCT-116; test: Induction of apoptosis in human HCT116 cells assessed as increase in caspase 8 level by ELISA relative to control; assay type: functional
[8] = test system: HCT-116; test: Induction of apoptosis in human HCT116 cells assessed as increase in caspase 9 level by ELISA relative to control; assay type: functional
[9] = test system: HCT-116; test: Induction of apoptosis in human HCT116 cells assessed as increase in cytochrome C by ELISA relative to control; assay type: functional
[10] = test system: HCT-116; test: Induction of apoptosis in human HCT116 cells assessed as increase in Bax level by ELISA relative to control; assay type: functional
[11] = test system: HCT-116; test: Induction of apoptosis in human HCT116 cells assessed as decrease in Bcl 2 level by ELISA relative to control (reference value: 10.1 +/- 0.73 ng/ml); assay type: functional
[12] = test system: HCT-116; test: Induction of apoptosis in human HCT116 cells assessed as early apoptotic cells incubated for 24 hrs by annexin V FITC and propidium iodide staining based flow cytometry (reference value: 0.9 %); assay type: functional
[13] = test system: HCT-116; test: Induction of apoptosis in human HCT116 cells assessed as late apoptotic cells incubated for 24 hrs by annexin V FITC and propidium iodide staining based flow cytometry (reference value: 0.39 %); assay type: functional
[14] = test system: HCT-116; test: Induction of apoptosis in human HCT116 cells assessed as necrotic cells incubated for 24 hrs by annexin V FITC and propidium iodide staining based flow cytometry (reference value: 0.46 %); assay type: functional
[15] = test system: HCT-116; test: Induction of cell cycle arrest in human HCT116 cells assessed as accumulation in preG phase incubated for 24 hrs by annexin V FITC and propidium iodide staining based flow cytometry (reference value: 1.75 %); assay type: functional
[16] = test system: HCT-116; test: Induction of cell cycle arrest in human HCT116 cells assessed as accumulation in G0/G1 phase incubated for 24 hrs by annexin V FITC and propidium iodide staining based flow cytometry (reference value: 46.72 %); assay type: functional
[17] = test system: HCT-116; test: Induction of cell cycle arrest in human HCT116 cells assessed as accumulation in G2/M phase incubated for 24 hrs by annexin V FITC and propidium iodide staining based flow cytometry (reference value: 18.29 %); assay type: functional
[18] = test system: HCT-116; test: Induction of cell cycle arrest in human HCT116 cells assessed as accumulation in S phase incubated for 24 hrs by annexin V FITC and propidium iodide staining based flow cytometry (reference value: 34.99 %); assay type: functional

| SMILES | IC50 [2] [µM] | IC50 [3] [µM] | IC50 [4] [µM] | further results |
| --- | --- | --- | --- | --- |
| CCOP(=O)(OCC)C(NNC(=O)CSc1nnc(-c2ccncc2)o1)c1ccccc1Cl (stereo unspecified) | 19.2 | 9.2 | 62.9 | IC50 [1]: 35.9 µM; selectivity ratio [5]: 3.9; fold change (FC) [6]: 7.78; fold change (FC) [7]: 6.4; fold change (FC) [8]: 11.61; fold change (FC) [9]: 6.72; fold change (FC) [10]: 6.18; Activity [11]: 5.088 ng/mL; Activity [12]: 7.26%; Activity [13]: 15.69%; Activity [14]: 3.28%; Activity [15]: 26.23%; Activity [16]: 24.91%; Activity [17]: 46.33%; Activity [18]: 28.76% |
| CCOP(=O)(OCC)C(NNC(=O)CSc1nnc(-c2ccncc2)o1)c1cc(OC)ccc1OC (stereo unspecified) | 20.3 | 24.6 | 61.6 |  |
| COc1cccc2c1C(=O)c1c(O)c3c(c(O)c1C2=O)C[C@@](O)(C(=O)CO)C[C@@H]3O[C@H]1C[C@H](N)[C@H](O)[C@H](C)O1 [DOXORUBICIN] | 10.4 | 9.4 |  |  |
| CCOP(=O)(OCC)C(NNC(=O)CSc1nnc(-c2ccncc2)o1)c1ccc(Br)cc1 (stereo unspecified) | 31 | 17.3 | 64.4 |  |
| CCOP(=O)(OCC)C(NNC(=O)CSc1nnc(-c2ccncc2)o1)c1ccc(C#N)cc1 (stereo unspecified) | 13.6 | 12.7 | 41.7 |  |
| CCOP(=O)(OCC)C(NNC(=O)CSc1nnc(-c2ccncc2)o1)c1ccccc1 (stereo unspecified) | 23.5 | 22.5 | 99.1 |  |
| CCOP(=O)(OCC)C(NNC(=O)CSc1nnc(-c2ccncc2)o1)c1cccc(OC)c1 (stereo unspecified) | 53.9 | 19.2 | 52.3 |  |
| CCOP(=O)(OCC)C(NNC(=O)CSc1nnc(-c2ccncc2)o1)c1ccc(F)cc1 (stereo unspecified) | 21.5 | 31.3 | 70.6 |  |

Now from value to compound, other results behind:

| IC50 [2] [µM] | IC50 [3] [µM] | IC50 [4] [µM] | SMILES | further results |
| --- | --- | --- | --- | --- |
| 27.3 | 21.1 | 63.4 | CCOP(=O)(OCC)C(NNC(=O)CSc1nnc(-c2ccncc2)o1)c1ccc(O)c(O)c1 (stereo unspecified) |  |
| 14.8 | 14.6 | 52.9 | CCOP(=O)(OCC)C(NNC(=O)CSc1nnc(-c2ccncc2)o1)c1ccc(O)cc1 (stereo unspecified) |  |
| 18.1 | 15 | 58.8 | CCOP(=O)(OCC)C(NNC(=O)CSc1nnc(-c2ccncc2)o1)c1ccc([N+](=O)[O-])cc1 (stereo unspecified) |  |
| 13.9 | 17.1 | 47.8 | CCOP(=O)(OCC)C(NNC(=O)CSc1nnc(-c2ccncc2)o1)c1cccs1 (stereo unspecified) |  |
| 25.8 | 9.5 | 57.3 | CCOP(=O)(OCC)C(NNC(=O)CSc1nnc(-c2ccncc2)o1)c1ccc2ccccc2c1 (stereo unspecified) | IC50 [1]: 23.4 µM; selectivity ratio [5]: 2.46; fold change (FC) [6]: 5.99; fold change (FC) [7]: 3.64; fold change (FC) [8]: 8.85; fold change (FC) [9]: 5.69; fold change (FC) [10]: 5.78; Activity [11]: 5.945 ng/mL; Activity [12]: 4.59%; Activity [13]: 12.51%; Activity [14]: 2.14%; Activity [15]: 19.24%; Activity [16]: 30.56%; Activity [17]: 37.97%; Activity [18]: 31.47% |
| 19.5 | 17.6 | 86.3 | CCOP(=O)(OCC)C(NNC(=O)CSc1nnc(-c2ccncc2)o1)c1ccc(C)cc1 (stereo unspecified) |  |
